Laboratory results reported in ChEMBL document CHEMBL1122983, “Synthesis and dopaminergic activity of (R)- and (S)-4-hydroxy-2-(di-n-propylamino)indan” (J Med Chem, 1985).

Target: Dopamine receptor (Homo sapiens) (UniProt P14416+P35462+P21918+P21917+P21728)
Conditions: Felis catus
Description: Inhibition of stimulation-induced tachycardia via the presynaptic dopamine receptors

SMILES	ID50
CCCN(CCC)[C@@H]1Cc2cccc(O)c2C1	0.007 µM
CCCN(CCC)[C@H]1Cc2cccc(O)c2C1	0.72 µM
